O=C(O)c1ccccc1Nc1cccc(C(F)(F)F)c1
solubility (mole fraction)
Conditions	in DMSO	in ethanol	in ethylene glycol	in isopropanol	in methanol	in n-butanol	in propylene glycol	in sec-butanol	in transcutol	in water
298.2 K	0.226	0.0681	0.00767	0.0962	0.0439	0.119	0.0126	0.121	0.193	5.83e-07
303.2 K	0.241	0.0747	0.00856	0.105	0.048	0.13	0.0139	0.133	0.211	8.01e-07
308.2 K	0.256	0.0857	0.00975	0.116	0.0531	0.142	0.0153	0.144	0.229	1.02e-06
313.2 K	0.27	0.098	0.0107	0.128	0.0577	0.157	0.0167	0.16	0.251	1.28e-06
318.2 K	0.286	0.112	0.012	0.144	0.0629	0.177	0.0181	0.179	0.278	1.6e-06

Conditions	solubility (mole fraction)
in PEG-400, 298.2 K	0.0337
in PEG-400, 303.2 K	0.04
in PEG-400, 308.2 K	0.0469
in PEG-400, 313.2 K	0.054
in PEG-400, 318.2 K	0.0616

From BigSolDB 2.1
